Laboratory results taken from publication PMC7170383 (Pharmaceutical Biology, 2020).

Legend:
CYP3A4 [1] = biological target: T1, CYP3A4 (Homo sapiens, UniProt P08684); experiment: Time-dependent inhibition of CYP3A4 in human liver microsomes; format: in vitro ADME
T1 construct: CYP3A4 catalysed reactions (testosterone 6β-hydroxylation) in pooled HLM; from tissue; host or cells: pooled human liver microsomes
Method: (§1) After incubation, an aliquot (20 μL) was transferred to another incubation tube (final volume 200 μL) containing an NADPH-generating system and probe substrates whose final concentrations were approximate to Km. Then, further incubations were performed to measure the residual activity. After being incubated for 0, 5, 10, 15, and 30 min, the reactions were terminated by adding a 100 μL acetonitrile internal standard mix and then placed on ice; the corresponding metabolites were determined by HPLC.

CYP2C19 = biological target: T2, CYP2C19 (Homo sapiens, UniProt P33261); experiment: CYP2C19 inhibition in pooled human liver microsomes (S-mephenytoin 4-hydroxylation); format: in vitro ADME; settings: CEP 100 μM, pooled HLMs
T2 construct: from tissue; host or cells: pooled human liver microsomes
Method: (§2) Marker reactions of eight CYP isoforms were examined, and apparent Km values were estimated to characterize the pooled HLMs. All incubations were performed in triplicate, and the mean values were utilized. The typical incubation systems contained 100 mM potassium phosphate buffer (pH 7.4), NADPH generating system (1 mM NADP^+, 10 mM glucose-6-phosphate, 1 U/mL of glucose-6-phosphate dehydrogenase and 4 mM MgCl2), the appropriate concentration of HLMs, a corresponding probe substrate and hispidulin (or positive inhibitor for different probe reactions) in a final volume of 200 μL.
(§3) There was a 3-min preincubation period (at 37 °C) before the reaction was initiated by adding an NADPH-generating system. The reaction was terminated by adding a 100 μL acetonitrile (10% trichloroacetic acid for CYP2A6) internal standard mix, and the solution was placed on ice. The mixture was centrifuged at 12,000 rpm for 10 min, and an aliquot (50 μL) of supernatant was transferred for HPLC analysis. The instrument used in this study was Agilent 1260 series instrument with DAD and FLD detector, and the quantitative assay for the corresponding metabolites was performed as previously reported (Lang et al. [2016]; Zhang et al. [2017]). The quantitative analysis of metabolites can represent the activity of corresponding CYPs.

CYP2A6 = biological target: T3, CYP2A6 (Homo sapiens, UniProt P11509); experiment: CYP2A6 inhibition in pooled human liver microsomes (coumarin 7-hydroxylation); format: in vitro ADME; settings: CEP 100 μM, pooled HLMs
T3 construct: from tissue; host or cells: pooled human liver microsomes
T3 sequence (P11509 1-494): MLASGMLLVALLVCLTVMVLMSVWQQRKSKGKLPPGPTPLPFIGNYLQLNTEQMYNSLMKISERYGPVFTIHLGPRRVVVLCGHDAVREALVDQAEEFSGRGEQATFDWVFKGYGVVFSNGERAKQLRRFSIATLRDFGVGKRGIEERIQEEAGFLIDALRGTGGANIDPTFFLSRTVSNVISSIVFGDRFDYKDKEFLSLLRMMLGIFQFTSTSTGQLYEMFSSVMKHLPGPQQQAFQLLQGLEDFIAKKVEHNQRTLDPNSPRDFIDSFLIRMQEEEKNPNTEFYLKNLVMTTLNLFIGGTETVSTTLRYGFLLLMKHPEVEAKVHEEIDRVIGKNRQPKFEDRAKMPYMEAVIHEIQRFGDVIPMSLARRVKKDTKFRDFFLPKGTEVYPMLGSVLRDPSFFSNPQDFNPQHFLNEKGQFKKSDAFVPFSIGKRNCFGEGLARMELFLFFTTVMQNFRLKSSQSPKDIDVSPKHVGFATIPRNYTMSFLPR
Method: as §2, §3

[2] = set-up: method as in Jiang et al. [2016]; settings: rats, orally administered CEP 10 mg/kg; ref Jiang et al. [2016]; cited from earlier work
CYP3A4 [3] = biological target: T1, CYP3A4; experiment: CYP3A4 inhibition in pooled human liver microsomes (testosterone 6β-hydroxylation); format: in vitro ADME
Method: All incubations were performed in triplicate, and the mean values were utilized.
The reaction was terminated by adding a 100 μL acetonitrile (10% trichloroacetic acid for CYP2A6) internal standard mix, and the solution was placed on ice. The mixture was centrifuged at 12,000 rpm for 10 min, and an aliquot (50 μL) of supernatant was transferred for HPLC analysis.
The enzyme kinetic parameters for the probe reaction were estimated from the best fit line, using least-squares linear regression of the inverse substrate concentration versus the inverse velocity (Lineweaver-Burk plots), and the mean values were used to calculate Vmax and Km. […] The mechanism of the inhibition was inspected using the Lineweaver–Burk plots and the enzyme inhibition models.

CYP1A2 = biological target: T4, CYP1A2 (Homo sapiens, UniProt P05177); experiment: CYP1A2 inhibition in pooled human liver microsomes (phenacetin O-deethylation); format: in vitro ADME; settings: CEP 100 μM, pooled HLMs
T4 construct: from tissue; host or cells: pooled human liver microsomes
T4 sequence (P05177 1-516): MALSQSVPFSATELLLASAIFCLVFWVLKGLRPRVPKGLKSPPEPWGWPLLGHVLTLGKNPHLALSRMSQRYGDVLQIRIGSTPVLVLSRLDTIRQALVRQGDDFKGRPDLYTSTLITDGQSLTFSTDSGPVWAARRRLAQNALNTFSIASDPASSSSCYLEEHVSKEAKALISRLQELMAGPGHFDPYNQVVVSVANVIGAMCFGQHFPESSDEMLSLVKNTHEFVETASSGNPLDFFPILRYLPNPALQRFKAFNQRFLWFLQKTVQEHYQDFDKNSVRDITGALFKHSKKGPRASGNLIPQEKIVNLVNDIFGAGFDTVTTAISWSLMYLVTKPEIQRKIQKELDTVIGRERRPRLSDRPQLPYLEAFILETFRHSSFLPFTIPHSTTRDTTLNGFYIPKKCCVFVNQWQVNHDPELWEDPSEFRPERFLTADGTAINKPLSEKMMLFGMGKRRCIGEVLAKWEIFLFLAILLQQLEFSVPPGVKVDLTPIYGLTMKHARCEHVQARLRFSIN
Method: as §2, §3

CYP2C9 [4] = biological target: T5, CYP2C9 (Homo sapiens, UniProt P11712); experiment: Time-dependent inhibition of CYP2C9 in human liver microsomes; format: in vitro ADME; settings: CEP 20 μM, pre-incubation with HLM 30 min, incubation 0–30 min
T5 construct: from tissue; host or cells: pooled human liver microsomes
Method: as §1

CYP2C9 [5] = biological target: T5, CYP2C9; experiment: CYP2C9 inhibition in pooled human liver microsomes (diclofenac 4′-hydroxylation); format: in vitro ADME
Method: as §2, §3
(§4) The enzyme kinetic parameters for the probe reaction were estimated from the best fit line, using least-squares linear regression of the inverse substrate concentration versus the inverse velocity (Lineweaver-Burk plots), and the mean values were used to calculate Vmax and Km. Inhibition data from the experiments that were conducted using multiple compound concentrations were represented by Dixon plots, and inhibition constant (Ki) values were calculated using non-linear regression according to the following equation: v=(VmaxS/Km(1+I/Ki)+S) where I is the concentration of the compound, Ki is the inhibition constant, S is the concentration of the substrate, and Km is the substrate concentration at half the maximum velocity (Vmax) of the reaction. The mechanism of the inhibition was inspected using the Lineweaver–Burk plots and the enzyme inhibition models. The data comparison was performed using Student’s t-test and performed using IBM SPSS statistics version 20 (IBM SPSS Inc., Armonk, NY).

CYP2C8 = biological target: T6, CYP2C8 (Homo sapiens, UniProt P10632); experiment: CYP2C8 inhibition in pooled human liver microsomes (paclitaxel 6α-hydroxylation); format: in vitro ADME; settings: CEP 100 μM, pooled HLMs
T6 construct: from tissue; host or cells: pooled human liver microsomes
T6 sequence (P10632 1-490): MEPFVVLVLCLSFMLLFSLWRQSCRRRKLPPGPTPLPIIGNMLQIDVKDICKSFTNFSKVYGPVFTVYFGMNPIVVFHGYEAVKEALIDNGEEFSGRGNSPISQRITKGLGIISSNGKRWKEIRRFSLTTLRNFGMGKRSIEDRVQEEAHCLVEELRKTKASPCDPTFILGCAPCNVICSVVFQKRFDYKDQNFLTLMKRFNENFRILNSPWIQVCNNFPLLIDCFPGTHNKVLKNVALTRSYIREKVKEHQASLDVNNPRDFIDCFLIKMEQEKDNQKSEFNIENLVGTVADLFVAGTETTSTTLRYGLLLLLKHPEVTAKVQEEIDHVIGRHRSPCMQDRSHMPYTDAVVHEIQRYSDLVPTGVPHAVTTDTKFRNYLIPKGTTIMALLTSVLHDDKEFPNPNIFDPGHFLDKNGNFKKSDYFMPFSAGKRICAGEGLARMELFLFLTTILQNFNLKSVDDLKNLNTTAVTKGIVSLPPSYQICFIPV
Method: as §2, §3

CYP2E1 [6] = biological target: T7, CYP2E1 (Homo sapiens, UniProt P05181); experiment: Time-dependent inhibition of CYP2E1 in human liver microsomes; format: in vitro ADME; settings: CEP 20 μM, pre-incubation with HLM 30 min, incubation 0–30 min
T7 construct: CYP2E1 catalysed reactions (chlorzoxazone 6-hydroxylation) in pooled HLM; from tissue; host or cells: pooled human liver microsomes
Method: as §1

CYP2E1 [7] = biological target: T7, CYP2E1; experiment: CYP2E1 inhibition in pooled human liver microsomes (chlorzoxazone 6-hydroxylation); format: in vitro ADME
Method: as §2, §3, §4

CYP2D6 = biological target: T8, CYP2D6 (Homo sapiens, UniProt P10635); experiment: CYP2D6 inhibition in pooled human liver microsomes (dextromethorphan O-demethylation); format: in vitro ADME; settings: CEP 100 μM, pooled HLMs
T8 construct: from tissue; host or cells: pooled human liver microsomes
Method: as §2, §3

T7 sequence (P05181 whole entry): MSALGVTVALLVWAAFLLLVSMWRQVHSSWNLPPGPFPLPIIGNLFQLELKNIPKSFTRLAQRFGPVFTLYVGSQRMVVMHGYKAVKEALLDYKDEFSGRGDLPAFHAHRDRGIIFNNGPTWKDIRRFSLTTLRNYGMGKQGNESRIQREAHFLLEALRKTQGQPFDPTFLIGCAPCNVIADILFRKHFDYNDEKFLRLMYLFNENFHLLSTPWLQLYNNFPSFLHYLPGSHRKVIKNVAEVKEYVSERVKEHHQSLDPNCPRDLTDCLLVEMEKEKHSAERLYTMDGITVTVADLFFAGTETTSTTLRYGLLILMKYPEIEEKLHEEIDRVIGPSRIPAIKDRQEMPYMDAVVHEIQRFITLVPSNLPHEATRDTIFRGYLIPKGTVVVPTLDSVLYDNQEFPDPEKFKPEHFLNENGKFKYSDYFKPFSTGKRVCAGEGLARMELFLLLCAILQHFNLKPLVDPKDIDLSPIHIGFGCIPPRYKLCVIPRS
T1 sequence (P08684 whole entry): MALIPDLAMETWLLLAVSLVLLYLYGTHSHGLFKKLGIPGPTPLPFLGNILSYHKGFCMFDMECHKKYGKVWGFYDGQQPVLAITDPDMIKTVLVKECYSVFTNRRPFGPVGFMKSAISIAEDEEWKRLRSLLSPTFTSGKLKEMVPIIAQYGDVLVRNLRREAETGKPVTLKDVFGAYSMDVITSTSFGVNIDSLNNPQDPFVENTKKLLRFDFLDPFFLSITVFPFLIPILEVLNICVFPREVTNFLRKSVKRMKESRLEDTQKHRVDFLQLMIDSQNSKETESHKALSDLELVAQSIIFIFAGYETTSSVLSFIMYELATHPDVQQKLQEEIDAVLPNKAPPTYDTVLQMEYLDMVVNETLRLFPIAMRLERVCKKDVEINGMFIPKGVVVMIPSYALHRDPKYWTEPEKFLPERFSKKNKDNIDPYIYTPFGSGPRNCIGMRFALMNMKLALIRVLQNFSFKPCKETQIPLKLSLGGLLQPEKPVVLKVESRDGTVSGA
T5 sequence (P11712 whole entry): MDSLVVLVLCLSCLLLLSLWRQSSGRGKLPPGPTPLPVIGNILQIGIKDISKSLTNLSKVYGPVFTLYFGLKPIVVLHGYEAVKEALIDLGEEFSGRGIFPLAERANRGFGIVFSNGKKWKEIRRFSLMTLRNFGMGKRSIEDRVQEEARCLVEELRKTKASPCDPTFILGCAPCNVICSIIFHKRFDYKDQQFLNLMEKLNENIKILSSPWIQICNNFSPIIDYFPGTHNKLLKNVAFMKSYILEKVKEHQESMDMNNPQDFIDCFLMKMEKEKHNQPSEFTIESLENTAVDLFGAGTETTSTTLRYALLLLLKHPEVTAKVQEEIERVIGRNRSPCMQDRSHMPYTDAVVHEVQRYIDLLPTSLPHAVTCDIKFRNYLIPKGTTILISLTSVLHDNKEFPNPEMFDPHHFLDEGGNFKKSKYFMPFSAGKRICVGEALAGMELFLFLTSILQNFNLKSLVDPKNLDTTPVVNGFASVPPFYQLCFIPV
T8 sequence (P10635 whole entry): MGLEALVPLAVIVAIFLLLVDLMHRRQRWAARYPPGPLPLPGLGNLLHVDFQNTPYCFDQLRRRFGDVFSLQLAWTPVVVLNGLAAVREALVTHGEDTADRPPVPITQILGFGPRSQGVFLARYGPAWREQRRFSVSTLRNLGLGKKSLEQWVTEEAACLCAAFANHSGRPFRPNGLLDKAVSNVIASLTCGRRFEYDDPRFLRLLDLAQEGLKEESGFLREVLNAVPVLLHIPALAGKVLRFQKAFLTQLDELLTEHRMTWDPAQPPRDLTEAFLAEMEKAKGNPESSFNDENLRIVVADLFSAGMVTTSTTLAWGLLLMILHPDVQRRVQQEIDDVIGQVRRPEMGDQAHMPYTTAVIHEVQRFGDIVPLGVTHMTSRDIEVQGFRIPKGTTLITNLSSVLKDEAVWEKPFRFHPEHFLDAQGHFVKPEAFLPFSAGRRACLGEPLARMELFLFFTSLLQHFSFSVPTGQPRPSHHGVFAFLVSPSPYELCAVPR
T2 sequence (P33261 whole entry): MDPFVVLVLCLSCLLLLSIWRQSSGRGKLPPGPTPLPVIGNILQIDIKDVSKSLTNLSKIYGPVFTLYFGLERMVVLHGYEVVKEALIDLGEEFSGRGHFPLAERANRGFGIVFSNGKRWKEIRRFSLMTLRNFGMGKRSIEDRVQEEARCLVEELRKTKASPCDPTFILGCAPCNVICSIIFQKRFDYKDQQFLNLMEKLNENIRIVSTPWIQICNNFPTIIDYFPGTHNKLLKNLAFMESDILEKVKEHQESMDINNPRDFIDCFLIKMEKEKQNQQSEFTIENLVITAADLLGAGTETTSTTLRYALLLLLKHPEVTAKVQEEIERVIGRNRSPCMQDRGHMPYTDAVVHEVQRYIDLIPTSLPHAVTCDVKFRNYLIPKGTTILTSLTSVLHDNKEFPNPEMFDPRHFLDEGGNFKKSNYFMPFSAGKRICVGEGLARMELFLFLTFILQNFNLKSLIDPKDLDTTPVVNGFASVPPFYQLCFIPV

In the case of `COc1ccc2cc1Oc1ccc(cc1)C[C@H]1c3c(cc4c(c3Oc3cc5c(cc3OC)CCN(C)[C@@H]5C2)OCO4)CCN1C` [CEP, Cepharanthine], the “Time-dependent change of CYP3A4 activity” value (CYP3A4 [1]; CEP 20 μM, pre-incubation with HLM 30 min, incubation 0–30 min) is reported as “decreased with the incubation time”, the “CYP3A4 inactivated each minute at a saturating concentration of CEP” value (CYP3A4 [1]; HLM, from Kinact) is reported as “about 5.8%” and the “Effect on CYP2C19 activity” value (CYP2C19) is reported as “not affected”. For the same compound, the “Effect on CYP2A6 activity” value (CYP2A6) was “not affected”, the “plasma Cmax” value [2] was “approximately 0.05 μg/mL” and the activity at 100 μM (CYP3A4 [3]; human, pooled human liver microsomes, pH 7.4, probe testosterone (6β-hydroxylation), read-out: CYP3A4 activity, % of control activity) was 12.6%. For the same compound, the “Inhibition manner on CYP3A4 (Lineweaver–Burk plots)” value (CYP3A4 [3]; pooled HLMs) was “non-competitive”, the “Effect on CYP1A2 activity” value (CYP1A2) was “not affected” and the “Time-dependent change of CYP2C9 activity” value (CYP2C9 [4]) was “not affected”. For the same compound, the Ki (CYP2C9 [5]) was 13.1 µM, the activity at 100 μM (CYP2C9 [5]; human, pooled human liver microsomes, pH 7.4, probe diclofenac (4′-hydroxylation), read-out: CYP2C9 activity, % of control activity) was 18.1% and the “Inhibition manner on CYP2C9 (Lineweaver–Burk plots)” value (CYP2C9 [5]; pooled HLMs) was “competitive”. For the same compound, the IC50 (CYP2C9 [5]; pooled HLMs, diclofenac 4′-hydroxylation) was 24.6 µM, the “Effect on CYP2C8 activity” value (CYP2C8) was “not affected” and the “Time-dependent change of CYP2E1 activity” value (CYP2E1 [6]) was “not affected”. For the same compound, the Ki (CYP2E1 [7]) was 11.8 µM, the activity at 100 μM (CYP2E1 [7]; human, pooled human liver microsomes, pH 7.4, probe chlorzoxazone (6-hydroxylation), read-out: CYP2E1 activity, % of control activity) was 23.6% and the “Inhibition manner on CYP2E1 (Lineweaver–Burk plots)” value (CYP2E1 [7]; pooled HLMs) was “competitive”. For the same compound, the IC50 (CYP2E1 [7]; pooled HLMs, chlorzoxazone 6-hydroxylation) was 25.6 µM and the “Effect on CYP2D6 activity” value (CYP2D6) was “not affected”.
